Data published in patent US7598382B2, “Aryl substituted imidazoquinolines” (Coley Pharmaceutical Group, Inc., priority 2002, dated 2009).

Row | melting point | Structure (SMILES)
1 | 221 to 224 °C | COCCc1nc2c(N)nc3ccc(-c4cccnc4)cc3c2n1CCCN1CCCC1=O [Example 188, 1-{3-[4-Amino-2-(2-methoxyethyl)-8-(pyridin-3-yl)-1H-imidazo[4,5-c]quinolin-1-yl]propyl}pyrrolidin-2-one]
2 | 202 to 205 °C | COCCc1nc2c(N)nc3ccc(-c4csc5ccccc45)cc3c2n1CCCN1CCCC1=O [Example 190, 1-{3-[4-amino-8-(benzo[b]thiophen-3-yl)-2-(2-methoxyethyl)-1H-imidazo[4,5-c]quinolin-1-yl]propyl}pyrrolidin-2-one]
3 | 194 to 195 °C | CCOCc1nc2c(N)nc3cc(-c4ccccc4)ccc3c2n1CC1CCN(C(=O)OC(C)(C)C)CC1 [Example 191, tert-Butyl 4-[(4-amino-2-ethoxymethyl-7-phenyl-1H-imidazo[4,5-c]quinolin-1-yl)methyl]piperidine-1-carboxylate]
4 | 142 to 143 °C | CCOCc1nc2c(N)nc3cc(-c4ccccc4)ccc3c2n1CC1CCNCC1 [Example 192, 2-Ethoxymethyl-7-phenyl-1-(piperidin-4-ylmethyl)-1H-imidazo[4,5-c]quinolin-4-amine]
5 | 224 to 225 °C | CCOCc1nc2c(N)nc3cc(-c4ccccc4)ccc3c2n1CC1CCN(S(C)(=O)=O)CC1 [Example 193, 2-Ethoxymethyl-1-{[1-(methanesulfonyl)piperidin-4-yl]methyl}-7-phenyl-1H-imidazo[4,5-c]quinolin-4-amine]
6 | 208 to 209 °C | CCOCc1nc2c(N)nc3cc(-c4ccccc4)ccc3c2n1CC1CCN(C(=O)N2CCOCC2)CC1 [Example 195, 2-Ethoxymethyl-1-{[1-(morpholin-4-ylcarbonyl)piperidin-4-yl]methyl}-7-phenyl-1H-imidazo[4,5-c]quinolin-4-amine]
7 | 188 to 189 °C | Nc1nc2cc(-c3ccccc3)ccc2c2c1nc(CC1CC1)n2CCOc1ccccc1 [Example 196, 2-Cyclopropylmethyl-1-(2-phenoxyethyl)-7-phenyl-1H-imidazo[4,5-c]quinolin-4-amine]
8 | 159 to 160 °C | CCOCc1nc2c(N)nc3cc(-c4ccccc4)ccc3c2n1CCOc1ccccc1 [Example 197, 2-Ethoxymethyl-1-(2-phenoxyethyl)-7-phenyl-1H-imidazo[4,5-c]quinolin-4-amine]
9 | 197 to 198 °C | COc1ccc(Cc2nc3c(N)nc4cc(-c5ccccc5)ccc4c3n2CCOc2ccccc2)cc1 [Example 198, 2-(4-Methoxybenzyl)-1-(2-phenoxyethyl)-7-phenyl-1H-imidazo[4,5-c]quinolin-4-amine]
10 | 201 to 202 °C | COCCc1nc2c(N)nc3cc(-c4ccccc4)ccc3c2n1CCCCNS(C)(=O)=O [Example 199, N-{4-[4-Amino-2-(2-methoxyethyl)-7-phenyl-1H-imidazo[4,5-c]quinolin-1-yl]butyl}methanesulfonamide]
11 | 135 to 141 °C | CCCc1nc2c(N)nc3cc(-c4ccccc4)ccc3c2n1CC(C)(C)NS(C)(=O)=O [Example 200, N-[2-(4-Amino-7-phenyl-2-propyl-1H-imidazo[4,5-c]quinolin-1-yl)-1,1-dimethylethyl]methanesulfonamide]
12 | 195 to 198 °C | CCOCc1nc2c(N)nc3cc(-c4ccccc4)ccc3c2n1CC(C)(C)NC(=O)C1CCCCC1 [Example 202, Cyclohexane N-[2-(4-amino-2-ethoxymethyl-7-phenyl-1H-imidazo[4,5-c]quinolin-1-yl)-1,1-dimethylethyl]carboxamide]
13 | 152 to 156 °C | CCOCc1nc2c(N)nc3cc(-c4ccccc4)ccc3c2n1CC(C)(C)NC(=O)NC1CCCCC1 [Example 203, N-[2-(4-Amino-2-ethoxymethyl-7-phenyl-1H-imidazo[4,5-c]quinolin-1-yl)-1,1-dimethylethyl]-N′-cyclohexylurea]
14 | 201 to 204 °C | Nc1nc2cc(-c3ccccc3)ccc2c2c1ncn2CCCN1CCCC1=O [Example 204, 1-[3-(4-Amino-7-phenyl-1H-imidazo[4,5-c]quinolin-1-yl)propyl]pyrrolidin-2-one]
15 | 199 to 203 °C | CCOCc1nc2c(N)nc3cc(-c4ccccc4)ccc3c2n1CCCN1CCCC1=O [Example 205, 1-[3-(4-Amino-2-ethoxymethyl-7-phenyl-1H-imidazo[4,5-c]quinolin-1-yl)propyl]pyrrolidin-2-one]
16 | 187 to 191 °C | COCCc1nc2c(N)nc3cc(-c4ccccc4)ccc3c2n1CCCN1CCCC1=O [Example 206, 1-{3-[4-Amino-2-(2-methoxyethyl)-7-phenyl-1H-imidazo[4,5-c]quinolin-1-yl]propyl}pyrrolidin-2-one]
17 | 202 to 204 °C | CCOCc1nc2c(N)nc3cc(-c4cccnc4)ccc3c2n1CC(C)(C)OCCS(C)(=O)=O [Example 363, 2-Ethoxymethyl-1-{2-[2-(methanesulfonyl)ethoxy]-2-methylpropyl}-7-(pyridin-3-yl)-1H-imidazo[4,5-c]quinolin-4-amine]
18 | 186 to 188 °C | CCOCc1nc2c(N)nc3cc(-c4cncc(OC)c4)ccc3c2n1CC(C)(C)OCCS(C)(=O)=O [Example 364, 2-Ethoxymethyl-1-{2-[2-(methanesulfonyl)ethoxy]-2-methylpropyl}-7-(5-methoxypyridin-3-yl)-1H-imidazo[4,5-c]quinolin-4-amine]

Row | melting point | Structure (SMILES)
19 | 205 to 206 °C | CCOCc1nc2c(N)nc3cc(-c4cccnc4)ccc3c2n1CCCCS(=O)(=O)N(C)C [Example 365, Dimethyl 4-[4-amino-2-ethoxymethyl-7-(pyridin-3-yl)-1H-imidazo[4,5-c]quinolin-1-yl]butane-1-sulfonamide]
20 | 207 to 208 °C | CCOCc1nc2c(N)nc3cc(-c4ccccc4)ccc3c2n1CCCCS(=O)(=O)N(C)C [Example 366, Dimethyl 4-[4-amino-2-ethoxymethyl-7-phenyl-1H-imidazo[4,5-c]quinolin-1-yl]butane-1-sulfonamide]
21 | 230 to 231.5 °C | CCOCc1nc2c(N)nc3cc(-c4cccnc4)ccc3c2n1CCCCS(=O)(=O)NCc1ccc(OC)cc1 [Example 367, 4-Methoxybenzyl 4-[4-amino-2-ethoxymethyl-7-(pyridin-3-yl)-1H-imidazo[4,5-c]quinolin-1-yl]butane-1-sulfonamide]
22 | 250 to 251.5 °C | CCOCc1nc2c(N)nc3cc(-c4cccnc4)ccc3c2n1CCCCS(N)(=O)=O [Example 368, 4-[4-Amino-2-ethoxymethyl-7-(pyridin-3-yl)-1H-imidazo[4,5-c]quinolin-1-yl]butane-1-sulfonamide]
23 | 216 to 218 °C | CCOCc1nc2c(N)nc3cc(-c4cccnc4)ccc3c2n1CCCCS(=O)(=O)NC [Example 369, Methyl 4-[4-amino-2-ethoxymethyl-7-(pyridin-3-yl)-1H-imidazo[4,5-c]quinolin-1-yl]butane-1-sulfonamide]
24 | 159 to 160 °C | CCOCc1nc2c(N)nc3cc(-c4cccnc4)ccc3c2n1CCCCCS(=O)(=O)N(C)C [Example 370, Dimethyl 5-[4-amino-2-ethoxymethyl-7-(pyridin-3-yl)-1H-imidazo[4,5-c]quinolin-1-yl]pentane-1-sulfonamide]
25 | 191 to 192 °C | CCOCc1nc2c(N)nc3cc(-c4cccnc4)ccc3c2n1CCCCCS(=O)(=O)NC [Example 371, Methyl 5-[4-amino-2-ethoxymethyl-7-(pyridin-3-yl)-1H-imidazo[4,5-c]quinolin-1-yl]pentane-1-sulfonamide]
26 | 150 to 152 °C | CCCC(=O)NCCCCn1c(COCC)nc2c(N)nc3cc(-c4cccnc4)ccc3c21 [Example 372, N-{4-[4-Amino-2-ethoxymethyl-7-(pyridin-3-yl)-1H-imidazo[4,5-c]quinolin-1-yl]butyl}butyramide]
27 | 200 to 202 °C | CCOCc1nc2c(N)nc3cc(-c4cccnc4)ccc3c2n1CCCCNC(=O)C(C)C [Example 373, N-{4-[4-Amino-2-ethoxymethyl-7-(pyridin-3-yl)-1H-imidazo[4,5-c]quinolin-1-yl]butyl}-2-methylpropanamide]
28 | 178 to 180 °C | CCCS(=O)(=O)NCCCCn1c(COCC)nc2c(N)nc3cc(-c4cccnc4)ccc3c21 [Example 376, N-{4-[4-Amino-2-ethoxymethyl-7-(pyridin-3-yl)-1H-imidazo[4,5-c]quinolin-1-yl]butyl}propane-1-sulfonamide]
29 | 190 to 192 °C | CCOCc1nc2c(N)nc3cc(-c4cccnc4)ccc3c2n1CCCCNC(=O)NC1CCCC1 [Example 377, N-{4-[4-Amino-2-ethoxymethyl-7-(pyridin-3-yl)-1H-imidazo[4,5-c]quinolin-1-yl]butyl}-N′-cyclopentylurea]
30 | 191 to 193 °C | CCCNC(=O)NCCCCn1c(COCC)nc2c(N)nc3cc(-c4cccnc4)ccc3c21 [Example 378, N-{4-[4-Amino-2-ethoxymethyl-7-(pyridin-3-yl)-1H-imidazo[4,5-c]quinolin-1-yl]butyl}-N′-propylurea]
31 | 192 to 194 °C | CCOCc1nc2c(N)nc3cc(-c4cccnc4)ccc3c2n1CCCCNC(=O)NC(C)C [Example 379, N-{4-[4-Amino-2-ethoxymethyl-7-(pyridin-3-yl)-1H-imidazo[4,5-c]quinolin-1-yl]butyl}-N′-(1-methylethyl)urea]
32 | 213 to 215 °C | CCOCc1nc2c(N)nc3cc(-c4cccnc4)ccc3c2n1CCNC(=O)C(C)C [Example 386, N-{2-[4-Amino-2-ethoxymethyl-7-(pyridin-3-yl)-1H-imidazo[4,5-c]quinolin-1-yl]ethyl}-2-methylpropanamide]
33 | 233 to 235 °C | CCOCc1nc2c(N)nc3cc(-c4cccnc4)ccc3c2n1CCNS(C)(=O)=O [Example 387, N-{2-[4-Amino-2-ethoxymethyl-7-(pyridin-3-yl)-1H-imidazo[4,5-c]quinolin-1-yl]ethyl}methanesulfonamide]
34 | 194 to 196 °C | CCOCc1nc2c(N)nc3cc(-c4cccnc4)ccc3c2n1CCNC(=O)NC(C)C [Example 388, N-{2-[4-Amino-2-ethoxymethyl-7-(pyridin-3-yl)-1H-imidazo[4,5-c]quinolin-1-yl]ethyl}-N′-(1-methylethyl)urea]
35 | 244 to 246 °C | CCOCc1nc2c(N)nc3cc(-c4cccnc4)ccc3c2n1CCN1CCCS1(=O)=O [Example 389, 1-[2-(1,1-Dioxo-1-isothiazolidin-2-yl)ethyl]-2-ethoxymethyl-7-(pyridin-3-yl)-1H-imidazo[4,5-c]quinolin-4-amine]
